A word on the Ki: it is a dissociation constant, usually derived from enzyme kinetics or from competition with a known ligand.

Values joined by “and” are separate entries in the source; they are usually repeats but may differ in a detail not shown here. Identical values can stand only once.

The nature of the assay: In vitro binding affinity against alpha-2D adrenergic receptor of male Wistar rat.
Turning to `Cc1cscc1C(C)c1cnc[nH]1` (centres undefined), the Ki came to 0.39 nM. As to `CCC(c1cnc[nH]1)c1sccc1C` (centres undefined), the Ki stood at 8.3 nM.

In the case of `CCc1cc(Cc2cnc[nH]2)c(CC)s1`, the Ki is 0.4 nM. `Cc1cscc1Cc1cnc[nH]1` came in with a Ki of 0.47 nM. To `c1ncc(Cc2cc3c(s2)CCCC3)[nH]1` belongs 3.7 nM. With `Cc1ccsc1C1(c2cnc[nH]2)CC1` the figure was 1000 nM; with `Brc1ccsc1Cc1cnc[nH]1`, 0.35 nM. To `Clc1cc(Cc2cnc[nH]2)c(Cl)s1` belongs 0.088 nM; to `Cc1sccc1Cc1cnc[nH]1`, 0.44 nM. `c1csc(Cc2cnc[nH]2)c1` registered a Ki of 8.7 nM. This Ki is about 20-fold higher than that of the compound before. Consider `CCc1cscc1C(C)c1cnc[nH]1` (centres undefined), for which the Ki was found to be 0.28 nM. `CC(c1cnc[nH]1)c1scc(Br)c1Br` (centres undefined): the Ki was 0.43 nM. This Ki is about 1.5-fold higher than that of the compound before. `Cc1cccc([C@H](C)c2cnc[nH]2)c1C` [4-[(1S)-1-(2,3-dimethylphenyl)ethyl]-1H-imidazole] showed an inhibition constant (Ki) of 0.015 nM.

As to `Brc1cscc1Cc1cnc[nH]1`, affinity was put at a Ki of 0.23 nM. To `Cc1ccsc1C(C)c1cnc[nH]1` (centres undefined) belongs 0.78 nM and 2.1 nM; to `COC(c1cnc[nH]1)c1cscc1C` (centres undefined), 15.9 nM. With `CC(c1cnc[nH]1)c1sccc1Br` (centres undefined) the figure was 0.96 nM and 0.18 nM; with `CCc1cscc1Cc1cnc[nH]1`, 0.29 nM. To `c1ccc2c(Cc3cnc[nH]3)csc2c1` belongs 0.09 nM; to `Cc1ccsc1Cc1cnc[nH]1`, 0.45 nM. As to `Cc1csc(C(C)c2cnc[nH]2)c1C` (centres undefined), the Ki is 0.75 nM. The compound `c1ncc(Cc2ccsc2)[nH]1` came in with a Ki of 3.1 nM. Against the preceding compound, the Ki is about 4.1-fold higher. As for `Cc1ccc(Cc2cnc[nH]2)s1`, the inhibitory constant (Ki) amounted to 3.6 nM.

On to `CC(c1cnc[nH]1)c1cscc1Br` (centres undefined), for which the Ki came to 0.08 nM. This Ki is about 45-fold lower than that of the compound before. In turn, `Cc1sccc1C(C)c1cnc[nH]1` (centres undefined) yielded an inhibitory constant (Ki) of 2.3 nM. Compound `Cc1csc(Cc2cnc[nH]2)c1C` registered a Ki of 0.17 nM. To `Brc1csc(Cc2cnc[nH]2)c1Br` belongs 0.07 nM; to `Cc1cc(Cc2cnc[nH]2)c(C)s1`, 0.69 nM. For the compound `CCC(c1cnc[nH]1)c1cscc1C` (centres undefined), the Ki turned out to be 0.97 nM. This Ki and that of the compound before are within 1.5-fold of each other. With `c1ccc2sc(Cc3cnc[nH]3)cc2c1`, the Ki stood at 1.1 nM. With `Cc1csc(C)c1Cc1cnc[nH]1` the figure was 0.1 nM; with `COC(c1cnc[nH]1)c1sccc1Br` (centres undefined), 39 nM. With `CC(C)c1cc(Cc2cnc[nH]2)c(C(C)C)s1` the figure was 12 nM; with `CCc1sccc1Cc1cnc[nH]1`, 0.07 nM.

The values above are taken from BindingDB's records for doi:10.1021/jm0003891 (The R. W. Johnson Pharmaceutical Research Institute, 2001).
